According to US20170008888A1 (KYORIN PHARMACEUTICAL CO., LTD., priority 2014, published 2017):
Marks after values point to notes of the source that are not given here.

Legend:
CECR2 = biological target: T1, CECR2 (Homo sapiens, UniProt Q9BXF3); test: Bromodomain binding assay: CECR2
T1 construct: T7 phage strains displaying bromodomains were grown in parallel; made in house; host or cells: E. coli host derived from BL21, infected with T7 phage
Description: (§1) T7 phage strains displaying bromodomains were grown in parallel in 24-well blocks in an E. coli host derived from the BL21 strain. E. coli were grown to log-phase and infected with T7 phage from a frozen stock (multiplicity of infection=0.4) and incubated with shaking at 32° C. until lysis (90-150 minutes). The lysates were centrifuged (5,000×g) and filtered (0.2 μm) to remove cell debris. […] The liganded beads were blocked with excess biotin and washed with blocking buffer (SeaBlock (Pierce), 1% BSA, 0.05 Tween 20, 1 mM DTT) to remove unbound ligand and to reduce non-specific phage binding. […] Test compounds (T62 and 46) were prepared as 1000× stocks in 100% DMSO and subsequently diluted 1:10 in monoethylene glycol (MEG) to create stocks at 100× the screening concentration (resulting stock solution is 10% DMSO/90% MEG). The compounds were then diluted directly into the assays such that the final concentration of DMSO and MEG were 0.1% and 0.9%, respectively. All reactions were performed in polystyrene 96-well plates in a final volume of 0.135 ml. […] The bromodomain concentration in the eluates was measured by qPCR. Compounds were assayed for binding activity against a panel of 40 bromodomain-containing proteins.

PCAF = biological target: T2, PCAF (Homo sapiens, UniProt Q92831); test: Bromodomain binding assay: PCAF
T2 construct: made in house; host or cells: E. coli host derived from the BL21 strain (T7 phage lysate)
Description: as §1

[1] = system: Imiquimod-induced psoriasis mouse model; test: Imiquimod (IMQ)-induced acute model of psoriasis in mouse: skin thickness, erythema, scaling; assay type: in vivo, mouse (Balb/c)
Description: Material and methods for the IMQ study were adapted from van der Fits et al. J Immunol., 2009, 182: 5836-5845. Eight week old male Balb/c mice (Harlan) received a daily topical dose of 62.5 mg 5% IMQ cream (Aldara™, Medicis) equivalent to 3.125 mg IMQ, on the shaved back (approximately 2×3.5 cm patch) and dorsal surface of the right ear for 6 consecutive days. Sham control mice were treated similarly with control cream (Hydrous Emulsified Base, HEB, Cream, Fagron). Treatments were administered by group as indicated in Table 1 below prior to daily application of IMQ (QD and morning dose of BID regimens), n=10 for all groups. […] Body weights and scoring of induced clinical disease were performed after dosing (Days 1-7) but prior to IMQ application (Days 1-6) on Days 1 (baseline), 3, 4, 6, 8. Mice were sacrificed on Day 8 and treated back skin tissue collected and divided for fixation for histopathology (a 12 mm punch in mid-back) the remainder flash frozen; right (IMQ) and left (control) ears, spleen (after wet weight) and lung were also individually collected and flash frozen, and stored at −70° C. for subsequent biochemical analyses. Statistics were performed using one-way ANOVA with Dunnett's post-hoc test comparing treated groups to the vehicle group, using InStat software (GraphPad, La Jolla, Calif.).
The severity of clinical disease was assessed by
1) skin thickness dial gauge micrometer measurements (duplicate) of the ears and the dorsal skin at the midline of the back (equal to double true measure of dorsal skin thickness)
2) erythema and scaling, independently scored on a scale from 0-4: 0=none, 1=slight, 2=moderate, 3=marked, 4=very marked with intermediate increments of 0.5 allowed.
Clinical disease assessments included erythema, scaling, skin thickness and cumulative disease severity scores and the change in skin thickness of the ears and dorsal back skin over time compared to baseline measurements (Tables 19 and 20). Body weights of the mice were measured at baseline and at end of study, and there were no significant changes in weight in any treatment group during the study (data not shown).

T1 sequence (Q9BXF3 434-538 limits assumed, species assumed): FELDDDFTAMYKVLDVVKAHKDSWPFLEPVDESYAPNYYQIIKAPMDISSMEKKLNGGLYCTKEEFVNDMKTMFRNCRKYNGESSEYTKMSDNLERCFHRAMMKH
T2 sequence (Q92831 723-827 limits assumed): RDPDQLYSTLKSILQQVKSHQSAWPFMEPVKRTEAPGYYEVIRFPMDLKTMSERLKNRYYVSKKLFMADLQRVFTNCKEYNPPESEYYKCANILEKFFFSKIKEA

SMILES: CCOc1cc(C(=O)N[C@H]2CC[C@H](O)CC2)ccc1Nc1cc2c(cn1)N(C)C(=O)c1ccccc1N2C [Compound T62]
- Kd (CECR2): > 20 µM
- Kd (PCAF): > 20 µM

SMILES: CCOc1cc(C(=O)N2CCC(N3CCCC3)CC2)ccc1Nc1cc2c(cn1)N(C)C(=O)c1ccccc1N2C [Compound 46, 3-(2-Ethoxy-4-(4-(pyrrolidin-1-yl)piperidine-1-carbonyl)phenylamino)-5,11-dimethyl-5H-benzo[e]pyrido[3,4-b][1,4]diazepin-10(11H)-one]
- Clinical Score Erythema (0-4), AVG Score ([1]; Day 1 (baseline), 60 mpk BID): 0
- Clinical Score Scaling (0-4), AVG Score ([1]; Day 1 (baseline), 60 mpk BID): 0
- Clinical Score Erythema (0-4), AVG Score ([1]; Day 1 (baseline), 60 mpk QD): 0
- Clinical Score Scaling (0-4), AVG Score ([1]; Day 1 (baseline), 60 mpk QD): 0
- % Mean DORSAL BACK THICKNESS versus day 1, AVG ([1]; Day 3, 25 mpk BID): 29.55%
- % Mean LEFT EAR THICKNESS [Control] versus day 1, AVG ([1]; Day 3, 25 mpk BID): −7.42%
- % Mean RIGHT EAR THICKNESS [IMQ] versus day 1, AVG ([1]; Day 3, 25 mpk BID): 6.71%
- % Mean DORSAL BACK THICKNESS versus day 1, AVG ([1]; Day 3, 60 mpk BID): 34.79%
- % Mean LEFT EAR THICKNESS [Control] versus day 1, AVG ([1]; Day 3, 60 mpk BID): −8.07%
- % Mean RIGHT EAR THICKNESS [IMQ] versus day 1, AVG ([1]; Day 3, 60 mpk BID): 3.35%
- Clinical Score Erythema (0-4), AVG Score ([1]; Day 3, 60 mpk BID): 1.15
- Clinical Score Scaling (0-4), AVG Score ([1]; Day 3, 60 mpk BID): 0.5
- % Mean DORSAL BACK THICKNESS versus day 1, AVG ([1]; Day 3, 60 mpk QD): 41.12%
- % Mean LEFT EAR THICKNESS [Control] versus day 1, AVG ([1]; Day 3, 60 mpk QD): −8.74%
- % Mean RIGHT EAR THICKNESS [IMQ] versus day 1, AVG ([1]; Day 3, 60 mpk QD): 3.71%
- Clinical Score Erythema (0-4), AVG Score ([1]; Day 3, 60 mpk QD): 1.05
- Clinical Score Scaling (0-4), AVG Score ([1]; Day 3, 60 mpk QD): 0.5
- % Mean DORSAL BACK THICKNESS versus day 1, AVG ([1]; Day 4, 25 mpk BID): 43.62%
- % Mean LEFT EAR THICKNESS [Control] versus day 1, AVG ([1]; Day 4, 25 mpk BID): −5.56%
- % Mean RIGHT EAR THICKNESS [IMQ] versus day 1, AVG ([1]; Day 4, 25 mpk BID): 12.03%
- % Mean DORSAL BACK THICKNESS versus day 1, AVG ([1]; Day 4, 60 mpk BID): 45.39%
- % Mean LEFT EAR THICKNESS [Control] versus day 1, AVG ([1]; Day 4, 60 mpk BID): −3.95%
- % Mean RIGHT EAR THICKNESS [IMQ] versus day 1, AVG ([1]; Day 4, 60 mpk BID): 11.25%
- Clinical Score Erythema (0-4), AVG Score ([1]; Day 4, 60 mpk BID): 1.3
- Clinical Score Scaling (0-4), AVG Score ([1]; Day 4, 60 mpk BID): 0.55
- % Mean DORSAL BACK THICKNESS versus day 1, AVG ([1]; Day 4, 60 mpk QD): 54.57%
- % Mean LEFT EAR THICKNESS [Control] versus day 1, AVG ([1]; Day 4, 60 mpk QD): −7.01%
- % Mean RIGHT EAR THICKNESS [IMQ] versus day 1, AVG ([1]; Day 4, 60 mpk QD): 9.53%
- Clinical Score Erythema (0-4), AVG Score ([1]; Day 4, 60 mpk QD): 1.3
- Clinical Score Scaling (0-4), AVG Score ([1]; Day 4, 60 mpk QD): 0.6
- % Mean DORSAL BACK THICKNESS versus day 1, AVG ([1]; Day 6, 25 mpk BID): 84.46* %
- % Mean LEFT EAR THICKNESS [Control] versus day 1, AVG ([1]; Day 6, 25 mpk BID): −1.35%
- % Mean RIGHT EAR THICKNESS [IMQ] versus day 1, AVG ([1]; Day 6, 25 mpk BID): 37.60* %
- % Mean DORSAL BACK THICKNESS versus day 1, AVG ([1]; Day 6, 60 mpk BID): 72.41** %
- % Mean LEFT EAR THICKNESS [Control] versus day 1, AVG ([1]; Day 6, 60 mpk BID): 1.37%
- % Mean RIGHT EAR THICKNESS [IMQ] versus day 1, AVG ([1]; Day 6, 60 mpk BID): 33.34** %
- Clinical Score Erythema (0-4), AVG Score ([1]; Day 6, 60 mpk BID): 1.65
- Clinical Score Scaling (0-4), AVG Score ([1]; Day 6, 60 mpk BID): 2.55
- % Mean DORSAL BACK THICKNESS versus day 1, AVG ([1]; Day 6, 60 mpk QD): 90.77^NS %
- % Mean LEFT EAR THICKNESS [Control] versus day 1, AVG ([1]; Day 6, 60 mpk QD): 8.65%
- % Mean RIGHT EAR THICKNESS [IMQ] versus day 1, AVG ([1]; Day 6, 60 mpk QD): 38.11* %
- Clinical Score Erythema (0-4), AVG Score ([1]; Day 6, 60 mpk QD): 2.25
- Clinical Score Scaling (0-4), AVG Score ([1]; Day 6, 60 mpk QD): 3.05
- % Mean DORSAL BACK THICKNESS versus day 1, AVG ([1]; Day 8, 25 mpk BID): 46.07^NS %
- % Mean LEFT EAR THICKNESS [Control] versus day 1, AVG ([1]; Day 8, 25 mpk BID): −3.26%
- % Mean RIGHT EAR THICKNESS [IMQ] versus day 1, AVG ([1]; Day 8, 25 mpk BID): 43.36** %
- % Mean DORSAL BACK THICKNESS versus day 1, AVG ([1]; Day 8, 60 mpk BID): 41.36^NS %
- % Mean LEFT EAR THICKNESS [Control] versus day 1, AVG ([1]; Day 8, 60 mpk BID): −1.92%
- % Mean RIGHT EAR THICKNESS [IMQ] versus day 1, AVG ([1]; Day 8, 60 mpk BID): 40.66** %
- Clinical Score Erythema (0-4), AVG Score ([1]; Day 8, 60 mpk BID): 1.3
- Clinical Score Scaling (0-4), AVG Score ([1]; Day 8, 60 mpk BID): 1.45
- % Mean DORSAL BACK THICKNESS versus day 1, AVG ([1]; Day 8, 60 mpk QD): 45.99^NS %
- % Mean LEFT EAR THICKNESS [Control] versus day 1, AVG ([1]; Day 8, 60 mpk QD): 0.14%
- % Mean RIGHT EAR THICKNESS [IMQ] versus day 1, AVG ([1]; Day 8, 60 mpk QD): 48.04** %
- Clinical Score Erythema (0-4), AVG Score ([1]; Day 8, 60 mpk QD): 1.1
- Clinical Score Scaling (0-4), AVG Score ([1]; Day 8, 60 mpk QD): 1.7
- Kd (CECR2): > 20 µM
- Kd (PCAF): > 20 µM
